The subject of the experiment is IgE-immunized Rat Peritoneal Mast Cells. Kind of experiment: cells. To be noted: Mast cell, read-out: % inhibition of Histamine Release.

SMILES strings stand for the structures.

Broadly, the inhibition is the share of the control response that was lost under treatment.

Regarding `CCOC(=O)N1CCC(=C2c3ccc(Cl)cc3CCc3cccnc32)CC1` [Loratadine, ethyl 4-(8-chloro-5,6-dihydro-11H-benzo[5,6]cyclohepta[1,2-b]pyridin-11-ylidene)-1-piperidinecarboxylate], the inhibition at 0.3 µM came out at 19.8 ± 5.77%, the inhibition at 1 µM turned out to be 27.1 ± 4.72%, the inhibition at 3 µM turned out to be 45.8 ± 9.26% and the inhibition at 10 µM came to 73.3 ± 16.8%.

The values are drawn from patent EP0978281B1, “EYEDROPS CONTAINING A LORATIDINE METABOLITE” (Schering-Plough Kabushiki Kaisha, priority 1997, dated 1998).
